Patent US20230063321A1, “Methods for Treating Inflammatory Bowel Diseases with alpha4beta7 Integrin Antagonists” (Protagonist Therapeutics, Inc., priority 2020, published 2023)
Values after ≈ are worked out from the molar mass of the structure shown. Values joined by “and” are separate entries in the source; they are usually repeats but may differ in a detail not shown here. Identical values can stand only once. Like-named read-outs stand apart in the source and are kept apart here. Marks after values point to notes of the source that are not given here. Numbered stars: 1 amine (or outer) side, 2 acyl side, 3 side chain; on linkers, the order of the positions; unused ones are H or OH. Bridge positions count the residues as written; N and C are the ends. Square brackets hold non-standard residues; d marks the D form. Peptide text beside a SMILES is read from it. I, II: the chains in the order shown. ξ: configuration not given here. Phe(4-tBu) = CC(C)(C)c1ccc(C[C@H](N)C(=O)O)cc1; Diglycolyl = O=C(COCC(=O)[*:2])[*:1]; NMeR = CN[C@@H](CCCNC(=N)N)C(=O)O; β3hE = N[C@@H](CCC(=O)O)CC(=O)O; Thr(3ξ) = CC(O)[C@H](N)C(=O)O; X1 = O=C(c1ccccc1C[*:2])[*:1]; Pen = CC(C)(S)[C@H](N)C(=O)O

Assays:
primary CD4+ T-cells = test: Flow cytometry phenotype of proliferated CD4+ T-cells (Th subsets, surface β7); format: cell-based, human
Description: PBMCs were purified from healthy human donors and enrichment of CD4+ T cells was performed. […] Phenotype, distribution of T-helper (Th) subsets and % RO analyses were conducted by flow cytometry of freshly stained live samples.

α4β7 integrin = target: T1, α4β7 integrin (Homo sapiens, UniProt P13612+P26010); test: MAdCAM1-mediated cytokine production by CD4+ T-cells (MSD/luminex multiplex); format: cell-based; conditions: IFNγ, IL-5, IL-6, IL-10, IL-13, GM-CSF, TNFα; three donors
T1 construct: endogenous in cells; host or cells: primary human CD4+ T cells enriched from PBMCs of healthy donors
T1 sequence (P13612 34-1032): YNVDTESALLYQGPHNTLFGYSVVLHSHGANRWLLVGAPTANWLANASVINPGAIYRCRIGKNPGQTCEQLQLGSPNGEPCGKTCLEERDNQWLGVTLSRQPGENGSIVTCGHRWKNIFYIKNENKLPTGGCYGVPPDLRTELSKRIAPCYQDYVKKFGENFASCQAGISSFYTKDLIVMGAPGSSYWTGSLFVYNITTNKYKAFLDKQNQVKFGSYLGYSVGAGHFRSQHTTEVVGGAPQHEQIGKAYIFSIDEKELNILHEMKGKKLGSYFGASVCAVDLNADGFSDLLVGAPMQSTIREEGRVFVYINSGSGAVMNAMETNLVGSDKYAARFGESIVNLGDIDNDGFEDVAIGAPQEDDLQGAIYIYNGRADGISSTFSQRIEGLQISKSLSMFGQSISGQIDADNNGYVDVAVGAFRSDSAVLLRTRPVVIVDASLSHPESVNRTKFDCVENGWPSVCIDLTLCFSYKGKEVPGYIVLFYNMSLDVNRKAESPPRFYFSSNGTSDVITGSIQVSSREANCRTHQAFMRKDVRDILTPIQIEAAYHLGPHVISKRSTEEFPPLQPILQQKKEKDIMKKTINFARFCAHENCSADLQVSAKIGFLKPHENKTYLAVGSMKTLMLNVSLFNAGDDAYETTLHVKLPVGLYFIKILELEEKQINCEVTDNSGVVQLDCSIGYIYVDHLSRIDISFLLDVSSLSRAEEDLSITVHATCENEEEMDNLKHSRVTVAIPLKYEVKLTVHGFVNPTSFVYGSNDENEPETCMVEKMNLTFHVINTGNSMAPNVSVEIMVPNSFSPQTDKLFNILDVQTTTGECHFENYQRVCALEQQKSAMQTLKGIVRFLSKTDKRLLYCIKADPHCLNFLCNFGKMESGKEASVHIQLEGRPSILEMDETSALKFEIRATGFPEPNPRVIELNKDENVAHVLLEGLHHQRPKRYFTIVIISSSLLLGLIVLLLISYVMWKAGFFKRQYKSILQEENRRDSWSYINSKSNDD
T1 sequence (P26010 20-798): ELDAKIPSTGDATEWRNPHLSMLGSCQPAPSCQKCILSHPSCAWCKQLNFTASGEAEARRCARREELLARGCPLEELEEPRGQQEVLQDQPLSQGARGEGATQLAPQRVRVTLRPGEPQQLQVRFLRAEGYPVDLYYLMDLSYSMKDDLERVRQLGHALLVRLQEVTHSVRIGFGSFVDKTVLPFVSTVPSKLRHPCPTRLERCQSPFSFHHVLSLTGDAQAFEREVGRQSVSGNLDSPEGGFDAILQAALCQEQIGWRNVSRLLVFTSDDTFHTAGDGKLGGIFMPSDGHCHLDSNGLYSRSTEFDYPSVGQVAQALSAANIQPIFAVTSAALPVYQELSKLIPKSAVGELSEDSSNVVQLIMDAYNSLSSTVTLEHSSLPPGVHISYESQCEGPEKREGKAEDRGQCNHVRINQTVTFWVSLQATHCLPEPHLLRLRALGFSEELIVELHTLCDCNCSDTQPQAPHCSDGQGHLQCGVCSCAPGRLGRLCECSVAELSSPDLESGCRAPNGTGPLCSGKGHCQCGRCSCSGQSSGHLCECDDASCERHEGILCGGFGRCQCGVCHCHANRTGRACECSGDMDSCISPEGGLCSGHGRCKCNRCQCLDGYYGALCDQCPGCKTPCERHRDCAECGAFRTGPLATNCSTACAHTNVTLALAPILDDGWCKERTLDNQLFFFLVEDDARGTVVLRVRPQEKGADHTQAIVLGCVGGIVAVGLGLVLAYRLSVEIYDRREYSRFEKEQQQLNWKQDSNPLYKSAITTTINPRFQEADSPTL
Description: PBMCs were purified from three healthy human donors (Donors 7, 10, and 11), and enrichment of CD4+ T cells was performed.

α4β7 = target: T2, α4β7 (Mus musculus, UniProt P26011+Q00651); test: α4β7 receptor occupancy in whole blood and Peyer's patches after oral dosing; format: in vivo, C57BL/6 mice
T2 construct: mice were euthanized and whole blood/plasma and Peyer's patches were collected; from tissue; host or cells: whole blood and Peyer's patches of C57BL/6 mice
T2 sequence (Q00651 41-1039): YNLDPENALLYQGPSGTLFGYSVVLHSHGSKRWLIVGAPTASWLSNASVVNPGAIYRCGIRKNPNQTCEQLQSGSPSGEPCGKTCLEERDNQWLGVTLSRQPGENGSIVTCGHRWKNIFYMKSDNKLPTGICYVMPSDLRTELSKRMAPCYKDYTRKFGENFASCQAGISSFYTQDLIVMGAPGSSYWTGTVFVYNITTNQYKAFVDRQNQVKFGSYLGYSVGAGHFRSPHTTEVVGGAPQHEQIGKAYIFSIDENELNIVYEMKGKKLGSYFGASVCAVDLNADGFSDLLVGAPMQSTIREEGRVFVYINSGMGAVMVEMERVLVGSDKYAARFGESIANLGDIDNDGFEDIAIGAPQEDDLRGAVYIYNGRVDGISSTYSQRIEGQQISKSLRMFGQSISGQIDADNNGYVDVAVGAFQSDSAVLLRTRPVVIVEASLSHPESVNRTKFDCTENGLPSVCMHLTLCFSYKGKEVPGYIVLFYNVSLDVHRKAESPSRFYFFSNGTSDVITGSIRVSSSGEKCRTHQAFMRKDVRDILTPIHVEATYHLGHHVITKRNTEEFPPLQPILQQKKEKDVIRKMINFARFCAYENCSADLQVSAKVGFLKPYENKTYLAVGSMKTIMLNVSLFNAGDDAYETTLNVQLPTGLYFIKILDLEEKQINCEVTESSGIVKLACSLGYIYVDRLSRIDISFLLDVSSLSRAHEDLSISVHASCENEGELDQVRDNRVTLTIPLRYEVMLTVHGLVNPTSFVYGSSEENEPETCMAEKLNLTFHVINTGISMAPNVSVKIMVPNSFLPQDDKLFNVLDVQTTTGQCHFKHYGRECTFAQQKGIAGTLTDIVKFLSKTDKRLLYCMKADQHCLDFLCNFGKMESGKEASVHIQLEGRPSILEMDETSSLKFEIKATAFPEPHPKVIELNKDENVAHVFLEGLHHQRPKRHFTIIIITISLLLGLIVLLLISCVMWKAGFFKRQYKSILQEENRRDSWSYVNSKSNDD
T2 sequence (P26011 20-806): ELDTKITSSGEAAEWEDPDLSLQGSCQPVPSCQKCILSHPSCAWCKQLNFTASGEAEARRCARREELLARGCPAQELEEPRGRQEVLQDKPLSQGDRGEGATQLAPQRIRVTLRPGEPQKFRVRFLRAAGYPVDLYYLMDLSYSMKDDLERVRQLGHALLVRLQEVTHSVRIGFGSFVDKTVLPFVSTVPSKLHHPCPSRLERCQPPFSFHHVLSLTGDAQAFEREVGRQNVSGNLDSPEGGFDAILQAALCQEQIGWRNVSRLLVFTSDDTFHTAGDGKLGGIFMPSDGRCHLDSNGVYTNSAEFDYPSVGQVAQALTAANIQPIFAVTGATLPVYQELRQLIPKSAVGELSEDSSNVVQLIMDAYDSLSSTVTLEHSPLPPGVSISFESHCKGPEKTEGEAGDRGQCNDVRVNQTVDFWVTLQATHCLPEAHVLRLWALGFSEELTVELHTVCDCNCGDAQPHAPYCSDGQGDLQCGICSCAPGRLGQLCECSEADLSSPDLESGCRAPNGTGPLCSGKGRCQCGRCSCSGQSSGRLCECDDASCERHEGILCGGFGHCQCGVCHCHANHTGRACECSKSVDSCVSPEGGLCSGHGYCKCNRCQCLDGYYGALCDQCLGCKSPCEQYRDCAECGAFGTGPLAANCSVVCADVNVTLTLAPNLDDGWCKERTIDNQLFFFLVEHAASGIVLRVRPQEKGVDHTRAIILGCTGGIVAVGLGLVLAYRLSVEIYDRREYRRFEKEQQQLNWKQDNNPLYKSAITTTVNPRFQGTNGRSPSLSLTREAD
Description: One hour following dosing, mice were euthanized and whole blood/plasma and Peyer's patches were collected. Peyer's patches were dispersed in 1 mL RPMI medium with 2% FBS without washing step. Whole blood and single cell suspension of Peyer's patches (100 uL out of 1 mL total) were submitted for flow cytometry to determine α4β7 receptor occupancy. % RO=(1−(% positive test sample/% positive median vehicle control))*100. Plasma and Peyer's patches dispersed in single cell suspension (500 uL of 1 mL total) were also analyzed for drug exposure.

α4β7 / MAdCAM1 = target: T3, α4β7 / MAdCAM1 (Homo sapiens, UniProt P13612+P26010); test: Adhesion of CD4+ T memory cells to MAdCAM1; format: cell-based
T3 construct: endogenous in cells
T3 sequence (P13612 34-1032): as the sequence (P13612 34-1032) above
T3 sequence (P26010 20-798): as the sequence (P26010 20-798) above
Description: After incubation, cells were washed extensively to remove excess peptide. For each reaction, an aliquot of cells was stained for α4β7 expression, while a separate aliquot was tested for adhesion to MAdCAM1.

α4β7 receptor occupancy = target: T4, α4β7 receptor occupancy (Homo sapiens, UniProt P13612+P26010); test: Plasma concentration-receptor occupancy relationship, sigmoid Emax (Hill) model; conditions: in vivo
T4 construct: the amount of α4β7 expression on the cell surface of circulating lymphocytes; endogenous in cells; host or cells: heparinized whole blood of healthy volunteers
T4 sequence (P13612 34-1032): as the sequence (P13612 34-1032) above
T4 sequence (P26010 20-798): as the sequence (P26010 20-798) above

[1] = target: T5, memory CD4+ T cells expressing α4β7 / recombinant MAdCAM1 (Homo sapiens, UniProt P13612+P26010); test: Potency against memory CD4+ T cells expressing α4β7 to recombinant MAdCAM1; format: cell-based; conditions: cells isolated from human PBMCs
T5 construct: endogenous in cells
T5 sequence (P13612 34-1032): as the sequence (P13612 34-1032) above
T5 sequence (P26010 20-798): as the sequence (P26010 20-798) above

[2] = Oral bioavailability in mice; conditions: mouse, in vivo
[3] = 28-day toxicology studies (NOEL); format: in vivo, rats and cynomolgus monkeys; conditions: standard allometric scaling and 10-fold safety margin
Description: The starting dose in the first in human single and multiple dose study was based on consideration of the no observed effect level (NOEL) from 28-day toxicology studies in rats and cynomolgus monkeys, and the receptor occupancy noted in cynomolgus monkeys. The NOEL determined in rats and monkeys translated to a human equivalent dose of approximately 145 mg using standard allometric scaling and a 10-fold safety margin. A starting dose of 100 mg was selected with initial stepwise escalations of approximately 3-fold.

[4] = Stability of dosing solutions; format: physicochemical; conditions: 50 mM phosphate buffer pH 7.4, stored at 2-8° C.
Description: Dose solutions were formulated in 50 mM phosphate buffer pH 7.4 and were prepared weekly by a qualified pharmacist.

[5] = male, human, in vivo; for Ctrough: po
Description: (§1) Dose escalation proceeded from 100 mg, 300 mg, 1000 mg, 1400 mg. Subjects in the 300 mg dose cohort received treatment in the fasted state on one occasion and following a high fat meal on a second occasion in a crossover fashion. The high fat meal consisted of two eggs fried in butter, two strips of bacon, two slices of toast with butter, four ounces of hash brown potatoes and 240 ml of whole milk. During Part 1, subjects refrained from food and drink except water for 10 hours before and for four hours after dosing with the exception of subjects in the 300 mg dose cohort during the fed treatment.
(§2) Part 2 was a randomized, placebo-controlled, double-blind multiple ascending dose study in 50 male subjects divided equally into 5 cohorts. […] Doses evaluated in Part 2 included 100 mg, 300 mg and 1000 mg. During Part 2, two cohorts of subjects (100 mg and 300 mg) received food approximately 30 minutes prior to each dose and another two cohorts of subjects (300 mg and 100 mg) refrained from food for 10 hours before and for 1 hour after dosing.
(§3) Study 1: The single and multiple ascending dose phase of the study consisted of sequential dose escalations in 10 subject per dose cohort. […] Dose solutions were formulated in 50 mM phosphate buffer pH 7.4 and were prepared weekly by a qualified pharmacist.
(§4) Blood samples for pharmacokinetics were collected predose and for 48 hours postdose following single doses. In the multiple ascending dose phase, blood samples were obtained on Days 1-3 and 14-16; on Days 8 samples were obtained predose, 4, and 12 hours. On Day 10 of the MAD, subjects were required to collect all urine for the 0-6, 6-12, 12-18, and 18-24 hour intervals postdose and on Day 11 subjects were required to collect fecal samples.
(§5) The drug and internal standard were extracted from the matrix by a protein precipitation procedure. The limit of quantitation was 0.2 ng/mL, 20 ng/mL, and 100 ng/mL in plasma, urine, and feces, respectively. […] Coefficient of determinations for the calibration curves were at least 0.99 for all matrices. The interassay accuracy (% bias) ranged from −2.2% to 1.0% for plasma, −3.8% to 9.0% for urine and −5.0 to 5.2% for feces. Interassay precision (% CV) ranged from 3.7% to 7.7% for plasma, 2.8% to 7.0% for urine, and 1.2% to 5.2% for feces.
(§6) Pharmacokinetic parameters were estimated by noncompartmental methods using Phoenix WinNonlin (Certara, Princeton N.J.). Peak plasma concentration (Cmax) and time to peak plasma concentration (Tmax) were observed values. The elimination rate was estimated from the slope of the least-squares regression on the terminal log-linear phase. Area under the plasma concentration-time curve from time zero to the last quantifiable concentration (AUCt) was estimated by a linear trapezoidal method and was extrapolated to infinity (AUC∞) by dividing the last quantifiable concentration b the elimination rate.

[6] = Study 1 pharmacokinetics in healthy male volunteers (liquid solution); conditions: for Fluctuation (%): Day 5, Mean ± SD; for half-life / dose excreted at 24 h: human, oral; for half-life: plasma, t½ (h), N = 1; for dose excreted at 24 h: male, faeces, 24-hour fecal recovery, intact, multiple dose
Description: as §1, §2, §3, §4, §5, §6

[7] = Anti-CD3 + MAdCAM1 + 1 uM Compound A

CC(C)C[C@@H]1NC(=O)[C@H](C(C)O)NC(=O)[C@H](CC(=O)O)NC(=O)[C@H](CO)NC(=O)[C@H](CCCNC(=N)N)N(C)C(=O)c2ccccc2CSC(C)(C)[C@@H](C(=O)N[C@@H](Cc2ccc(C(C)(C)C)cc2)C(=O)N[C@@H](CCC(=O)O)CC(=O)N[C@H](CCCCNC(=O)COCC(=O)NCCCC[C@@H](NC(=O)C[C@H](CCC(=O)O)NC(=O)[C@H](Cc2ccc(C(C)(C)C)cc2)NC(=O)[C@H]2NC(=O)[C@H](CC(C)C)NC(=O)[C@H](C(C)O)NC(=O)[C@H](CC(=O)O)NC(=O)[C@H](CO)NC(=O)[C@H](CCCNC(=N)N)N(C)C(=O)c3ccccc3CSC2(C)C)C(=O)O)C(=O)O)NC1=O (stereo partly drawn) [Compound A, ((2-Benzyl)-(N-Me-R)-Ser-Asp-Thr-Leu-Pen-(Phe(4-tBlu))-(β-homo-Glu)-(D-Lys)-OH)2 (SEQ ID NO: 5) and linker-DIG diglycolic acid] (I: [NMeR]SD[Thr(3ξ)]L[Pen][Phe(4-tBu)][β3hE][dK]-OH / II: [NMeR]SD[Thr(3ξ)]L[Pen][Phe(4-tBu)][β3hE][dK]-OH; linker I:9-II:9 via Diglycolyl; linker I:N-I:6, II:N-II:6 via X1)
Th1-IFNγ, CD4+ T-cells (primary CD4+ T-cells; [7]): 15% | Th2-IL-4, CD4+ T-cells (primary CD4+ T-cells; [7]): 0.7% | Th17-IL-17A, CD4+ T-cells (primary CD4+ T-cells; [7]): 0.6% | surface expression of β7 in undivided CD4+ T-cells (primary CD4+ T-cells; tested in 5 donors): lowered | inhibition of MAdCAM1-mediated cytokine production (α4β7 integrin): Concentration-dependent and full inhibition | receptor occupancy in whole blood and Peyer's patches, 30 mg/kg vs 3 mg/kg dose group (α4β7; PO): significantly higher | receptor occupancy in Peyer's patches compared to whole blood (α4β7; both dose groups (3 and 30 mg/kg PO)): significantly higher | receptor occupancy at 30 mg/kg (α4β7; mouse, 30 mg/kg dose): 100% | Maximal adhesion reduction (%) (α4β7 / MAdCAM1; Donor 1, normalized to no-peptide control): 38% | Maximal adhesion reduction (%) (α4β7 / MAdCAM1; Donor 2, normalized to no-peptide control): 36% | Maximal adhesion reduction (%) (α4β7 / MAdCAM1; Mean of two donors): 37% | R-squared, α4β7 expression reduction vs adhesion reduction (α4β7 / MAdCAM1; first donor): 0.968 | R squared, α4β7 expression reduction vs adhesion reduction (α4β7 / MAdCAM1; second donor): 0.940 | IC50 (α4β7 receptor occupancy; read-out: estimated IC50 for receptor occupancy (converted)): 0.251 nM | IC80 (α4β7 receptor occupancy; read-out: estimated IC80 for receptor occupancy): 5.9 ng/mL (≈ 2.14 nM) | IC50 [1]: 0.265 nM | bioavailability [2]: < 1% | human equivalent dose of the NOEL [3]: approximately 145 mg | dosing solutions demonstrated to be stable [4]: 3 months | AUCt (ng · h/mL) ([5]; 100 mg): 12.9 ± 7.27^ ng · h/mL | AUCinf ([5]; 300 mg): 0.0463 ± 0.0192 µg·h/mL | AUCinf (ng · h/mL) ([5]; 300 mg): 43.9 ± 13.0^d ng · h/mL | Cmax (ng/mL) ([5]; 300 mg): 4.72 ± 1.85^ ng/mL | AUCt ([5]; 450 mg): 0.132 ± 0.106 µg·h/mL | AUCtau ([5]; 450 mg): 0.0721 ± 0.0547 µg·h/mL | Cmax ([5]; 450 mg): 5.98 ± 1.61 ng/mL | AUCinf ([5]; 900 mg): 0.16 ± 0.0965 µg·h/mL | AUCt ([5]; 900 mg): 0.14 ± 0.0744 µg·h/mL | AUCtau ([5]; 900 mg): 0.14 ± 0.0744 µg·h/mL | Cmax ([5]; 900 mg): 22.8 ± 16.9 ng/mL | Ctrough ([5]; 450 mg): 3.25 ± 3.5 ng/mL | Ctrough ([5]; 900 mg): 1.78 ± 2.3 ng/mL | accumulation with once daily dosing (Cmax and AUCt, Day 14 vs Day 1) ([6]; 300 mg and 1000 mg): ≤ 30% | Fluctuation (%) ([6]; 450 mg Twice Daily): 143% and 143 ± 42% | Fluctuation (%) ([6]; 450 mg Twice Daily, listed as COMPOUND A): 143% | Fluctuation (%) ([6]; 900 mg Once Daily): 245 ± 81% | Fluctuation (%) ([6]; 900 mg Once Daily, listed as COMPOUND A): 245% | half-life ([6]; 100 mg, 100 mg Fed once daily, Day 1): 3.85 h | half-life ([6]; 100 mg, 100 mg Fed once daily, Day 14): 7.4 h | half-life ([6]; 300 mg, 300 mg Fed once daily, Day 1): 7.96 h | dose excreted at 24 h ([6]; 300 mg, 300 mg fasted): 0.73% | dose excreted at 24 h ([6]; 300 mg, 300 mg fed): 1.78%
